Experimental data reported in ChEMBL document CHEMBL1135025, “Synthesis of iodinated biochemical tools related to the 2-azetidinone class of cholesterol absorption inhibitors” (2002).
Calls of active or inactive are those of the source. The rule behind the calls is not given here.

Columns and labels:
Cricetinae gen. sp. [1] = test: Effective dose required to produe activity in cholesterol hamster assay was determined; assay type: functional, Cricetulus griseus
Cricetinae gen. sp. [2] = test: In vivo activity in a cholesterol-fed hamster assay was determined at 1 mg/kg/day; assay type: functional, Cricetulus griseus
Cricetinae gen. sp. [3] = test: Effective dose required to produe activity in cholesterol hamster assay was determined; na means not applicable; assay type: functional, organism-based; conditions: Cricetulus griseus
Cricetinae gen. sp. [4] = test: In vivo activity in a cholesterol-fed hamster assay was determined at 50 mg/kg/day; assay type: functional, Cricetulus griseus
Cricetinae gen. sp. [5] = test: In vivo activity in a cholesterol-fed hamster assay was determined at 10 mg/kg/day; assay type: functional, Cricetulus griseus

Structure (SMILES)	ED50 (Cricetinae gen. sp. [1])	Reduction (Cricetinae gen. sp. [2])	ED50 (Cricetinae gen. sp. [3])	Reduction (Cricetinae gen. sp. [4])	Reduction (Cricetinae gen. sp. [5])
O=C1[C@H](CC[C@H](O)c2ccc(F)cc2)[C@@H](c2ccc(O)cc2)N1c1ccc(I)cc1	0.49 mg/kg/day	-63%	–	–	–
COc1ccc([C@@H]2[C@@H](CCCc3ccccc3)C(=O)N2c2ccc(I)cc2)cc1 (racemic)	–	–	inactive	-82%	–
COc1ccc([C@@H]2[C@@H](CCCc3ccc(I)cc3)C(=O)N2c2ccc(OC)cc2)cc1 (racemic)	–	–	inactive	-56%	–
O=C1[C@H](CC[C@H](O)c2ccc(I)cc2)[C@@H](c2ccc(O)cc2)N1c1ccc(F)cc1	–	-54%	inactive	–	–
COc1ccc([C@@H]2[C@@H](CCCc3ccccc3)C(=O)N2c2ccc(OC)cc2)cc1 [SCH-48461]	2.2 mg/kg/day	–	–	–	-93%
O=C1[C@H](CC[C@H](O)c2ccc(F)cc2)[C@@H](c2ccc(O)cc2)N1c1ccc(F)cc1 [EZETIMIBE]	0.04 mg/kg/day	-100%	–	–	–
O=C(O)[C@H]1OC(Oc2ccc([C@@H]3[C@@H](CC[C@H](O)c4ccc(F)cc4)C(=O)N3c3ccc(I)cc3)cc2)C(O)[C@@H](O)[C@@H]1O (single isomer, unassigned)	–	-54%	inactive	–	–
